The subject of series [1] is nerve transection. The series is described as follows: Triceps surae muscle tension after sciatic nerve transection (laceration) injury. Format: in vivo, rat. To be noted: 150 μg/kg i.p. How it is done: (§1) Sciatic nerve innervates triceps surae muscle and thus sciatic nerve conduction can be measured in terms of triceps surae muscle contraction. As shown in this experimental setup (FIG. 2) sciatic nerve was electrically stimulated proximal to crush site, and triceps surae muscle tension was measured by force transducer (FT10; Grass Instruments).
(§2) Briefly, Sprague-Dawley (SD) rats were anaesthetized with 3-4% isoflurane, the trachea was cannulated, and the lungs were mechanically ventilated (Harvard Apparatus) with oxygen balanced vaporized 2% isoflurane. The sciatic nerve and triceps surae muscles were exposed by blunt dissection and the calcaneal tendon was severed and linked with braided fishing line to a force transducer. A shielded stimulating electrode was placed under sciatic nerve and injury was performed distal to a stimulating electrode. Sciatic nerve underwent a standardized crush injury with blunt forcep (Miltex #18-1107) and jig or laceration injury with fine scissors. Sciatic nerve crush injury was done 3 mm proximal to trifurcation. The triceps surae muscles were contracted for 10 seconds at 40 Hz, 0.1 ms pulse, and a voltage two times above the motor threshold.

The subject of series [2] is Dorsal skin excision wounds. Nature of the series: Dorsal skin excision wound closure. Format: in vivo, mouse. How it is done: Dorsal skin excision wounds (5-mm diameter) were made on 7-8-week-old wild-type C57BL/6 mice (FIG. 15). Mice were systemically administered saline (control) or 80 μg of 4-AP daily for 14 days. All mice were subjected to functional wound healing and tissue regeneration image-based assays at days 0, 3, 7, 10, and 14. The wound size of each mouse was measured and compared to zero day wound diameter from digital images. The percentage of wound closure was calculated by using the formula:
Wound closure (%)=(area of original wound−area of actual wound)/area of original wound×100.

The test system of series [3] is sciatic nerve crush injury. The settings on record: systemic administration (Tseng et al. 2016); cited from earlier work.
For series [4], the system named is sciatic nerve crush injury. The series is described as follows: Triceps surae muscle tension 3 days post sciatic nerve crush injury. Format: in vivo, rat. The settings on record: 3 days post crush. From the text: Sciatic nerve crush injury was done 3 mm proximal to trifurcation.
Anesthesia was maintained with 2% isoflurane.

The conditions of series [5]: 150 μg/kg i.p., SD rat.
Method: 4-AP stock was prepared in saline and i.p. dose of 150 μg/kg was administered in rats.
Circulating level of 4-AP in rat serum sample was evaluated using ABSciex 4000 Q Trap mass spectrometry coupled with a Waters Acquity UPLC separation (UPLC/MS/MS) system in the Mass Spectrometry Core Facility in College of Medicine of Penn State University.
4-AP-d4 was used as an internal standard. The multiple reaction monitoring mode (MRM) was used to analyze and quantify 4-AP and 4-AP-d4, with the transitions of m/z 95>78 for 4-AP and 99>82 for 4-AP-d4. 4-AP was quantified by using a standard curve which was constructed by plotting the ratio of the peak area of 4-AP to the peak area 4-AP-d4 versus 4-AP concentration (0.01 μM-20 μM). All peaks were integrated and quantified by ABSciex Multiquan 2.1 software.
For series [6] the following is noted: cited from earlier work.
The test system of series [7] is sciatic nerve crush injury. The series is described as follows: Triceps surae muscle tension immediately after sciatic nerve crush injury. Format: in vivo, rat. How it is done:
as §1, §2

Molecules are shown by their SMILES.

For `Nc1ccncc1` [4-AP, 4-aminopyridine], the “restoration of nerve conduction upon treatment” value in series [1] is on record as “does not occur”. The “reduction in wound area as compared to control animals” value in series [2] (by seven days, systemic delivery) is recorded as “at least 50%”. Besides, the “diameter/width of the wound area” value came out at 4.0 mm in series [2] (day 3, 5 mm wound at day 0, 80 μg daily systemic (saline 5 mm)); 1.5 mm in series [2] (day 7, 80 μg daily systemic (saline 2.7 mm)); 0.3 mm in series [2] (day 10, 80 μg daily systemic (saline 1.0)). Further, the “wound area reduction as compared to control animals” value in series [2] (in three days, systemic delivery) was “at least 10%”. In addition, the “wound healing compared to saline treated mice” value in series [2] (systemic administration) is recorded as “accelerates the wound healing process”. Besides, the “motor functional recovery after sciatic nerve crush injury” value in series [3] is given as “improve motor functional recovery after sciatic nerve crush injury”. Besides, the muscle tension in series [4] (lower stimulation voltage, 30 minutes after 150 μg/kg i.p. or local thermogel) turned out to be 250 g; in series [7] (30 minutes after 4-AP 150 μg/kg i.p. or local thermogel, 2100 g before injury, none post crush), 900 g. Besides, the “AUC of muscle tension” value in series [4] (systemic or local treatment) and in series [7] (systemic or local treatment) was “significantly increased” throughout. In addition, the “Muscle response increase over a crush” value in series [4] (systemic or local treatment) was found to be 80%; in series [7] (systemic (150 μg/kg i.p.) or local treatment), 800%. Besides, the peak muscle tension entry in series [4] (systemic or local treatment) and in series [7] (systemic or local treatment) was “significantly increased” each time. Also, the “4-AP concentration in serum” value in series [5] was “tolerable 4-AP concentration in serum”. In addition, in series [6], the “human tolerable limit of serum 4-AP” value was 100 ng/mL.

Values taken from patent US20230058178A1, “METHODS AND MATERIALS FOR TREATING NERVE INJURY AND/OR PROMOTING WOUND HEALING” (The Penn State Research Foundation, priority 2020, published 2023).
